What was measured:
Type in all cases: in vivo, male Carworth Farms #1 mice or Sprague-Dawley rats
[1] = Subcutaneous Pentylenetetrazol (Metrazol) Seizure Threshold Test; conditions: for Lowest active dose, Metrazol (Phase I): Table V; for ED50: Mus musculus, read-out: ED50 for inhibition of seizures, Metrazol (Phase II)
[2] = Anticonvulsant activity, both or unspecified seizure models; conditions: for Time of peak activity (Phase II): Table X, IP, challenge time; for Anticonvulsant activity (in words): running text
[3] = Maximal Electroshock Seizure Test; conditions: for Lowest active dose, MES (Phase I): Table V; for ED50: Mus musculus, read-out: ED50 for inhibition of seizures, MES (Phase II)
[4] = Table X, IP, challenge time 30 min
[5] = Table X, IP, challenge time 4 hrs
[6] = Table X, IP, at time of peak activity
[7] = Table X, SC, challenge time 30 min
[8] = Table X, SC, challenge time 4 hrs

Row | SMILES | Lowest effective dose, Metrazol (Phase I) [1, 4] | Lowest effective dose, Metrazol (Phase I) [1, 5] | Time of peak activity (Phase II) [2] [h] | Anticonvulsant activity (in words) [2] | ED50 for inhibition of seizures, MES (Phase II) [3, 6] [mg/kg] | Lowest effective dose, MES (Phase I) [3, 4] | Lowest effective dose, MES (Phase I) [3, 5] | Lowest effective dose, Metrazol (Phase I) [1, 7] | Lowest effective dose, Metrazol (Phase I) [1, 8] | Lowest effective dose, MES (Phase I) [3, 7] | Lowest effective dose, MES (Phase I) [3, 8] | Lowest active dose, Metrazol (Phase I) ([1]; IP, challenge time 30 min) | Lowest active dose, Metrazol (Phase I) ([1]; IP, challenge time 4 hrs) | Lowest active dose, MES (Phase I) ([3]; IP, challenge time 30 min) | Lowest active dose, MES (Phase I) ([3]; IP, challenge time 4 hrs) | further results
1 | O.O.O.O=C1[N-]C(=O)C(c2ccccc2)(c2ccccc2)N1.O=C1[N-]C(=O)C(c2ccccc2)(c2ccccc2)N1.[Cu+2] [Cu(II)(Dilantin)2 (H2 O)3] | 100 milligrams per kilogram of bod | 100 milligrams per kilogram of bod | 4 | did not potentiate but did block both types of seizures | 13 | 30 milligrams per kilogram of bod | 30 milligrams per kilogram of bod | – | – | – | – | – | – | – | – | Onset and duration of anticonvulsant action (in words) [2]: rapid onset and prolonged duration in inhibiting only Maximal Electroshock-induced seizures; Time of peak effect ([2]; Phase II): 4 h
2 | O.O=C1Nc2ccc(Cl)cc2C(c2ccccc2Cl)=NC1O.O=C1Nc2ccc(Cl)cc2C(c2ccccc2Cl)=NC1O.[Cl-].[Cl-].[Cu+2] (centres unmarked) [Cu(II)(Lorazepam)2 (Cl)2 H2 O] | I | I | – | appears to be quite active | – | 20 milligrams per kilogram of bod | 30 milligrams per kilogram of bod | I | I | 20 milligrams per kilogram of bod | 100 milligrams per kilogram of bod | – | – | – | – | Onset and duration of anticonvulsant action (in words) [2]: rapid onset of action and prolonged duration following intraperitoneal and subcutaneous administration
3 | CCC1(c2ccccc2)C(=O)[N-]C(=O)NC1=O.CCC1(c2ccccc2)C(=O)[N-]C(=O)NC1=O.O.O.O.[Cu+2] [Cu(II)(Phenobarbital)2 (H2 O)3] | 5 milligrams per kilogram of bod | 5 milligrams per kilogram of bod | 2 | – | 16 | 30 milligrams per kilogram of bod | 30 milligrams per kilogram of bod | 30 milligrams per kilogram of bod | 30 milligrams per kilogram of bod | 30 milligrams per kilogram of bod | 30 milligrams per kilogram of bod | – | – | – | – | ED50 for inhibition of seizures, Metrazol (Phase II) [1, 6]: 10 mg/kg
4 | CCC1(c2ccccc2)C(=O)[N-]C(=O)NC1=O.CCC1(c2ccccc2)C(=O)[N-]C(=O)NC1=O.[Cu+2].c1ccncc1.c1ccncc1 [Cu(II)(Phenobarbital)2 (pyridine)2] | 30 milligrams per kilogram of bod | 30 milligrams per kilogram of bod | 2 | – | 17 | 100 milligrams per kilogram of bod | 100 milligrams per kilogram of bod | I | 30 milligrams per kilogram of bod | I | 30 milligrams per kilogram of bod | – | – | – | – | ED50 for inhibition of seizures, Metrazol (Phase II) [1, 6]: 9 mg/kg
5 | Cc1ncc(CO)c(C=N[C@@H](CO)C(=O)[O-])c1[O-].O.[Cu+2] [Cu(II)Pyridoxylidene-L-serinate(H2 O)] | – | – | – | more effective but only protected against the Metrazol-induced seizure | – | – | – | – | – | – | – | 100 mg/kg of body weight | 100 mg/kg of body weight | I | I | –
6 | Cc1ncc(CO)c(C=NC(C(=O)[O-])C(C)O)c1[O-].O.O.[Cu+2] [Cu(II)Pyridoxylidene-L-threoninate(H2 O)2] | – | – | – | more effective but only protected against the Metrazol-induced seizure | – | – | – | – | – | – | – | 30 mg/kg of body weight | 30 mg/kg of body weight | I | I | –
7 | Cc1ncc(CO)c(C=N[C@@H](Cc2c[nH]c3ccccc23)C(=O)[O-])c1[O-].O.O.[Cu+2] [Cu(II)Pyridoxylidene-L-tryptophanate(H2 O)2] | – | – | – | more effective but only protected against the Metrazol-induced seizure | – | – | – | – | – | – | – | 30 mg/kg of body weight | 30 mg/kg of body weight | I | I | –
8 | Cc1ncc(CO)c(C=NCC(=O)[O-])c1[O-].Cc1ncc(CO)c(C=NCC(=O)[O-])c1[O-].O.O.O.[Cu+2].[Cu+2] [Cu(II)Pyridoxylideneglycinate(H2 O)1.5] | – | – | – | protected against both types of seizure | – | – | – | – | – | – | – | 100 mg/kg of body weight | I | 300 mg/kg of body weight | I | –
9 | CN1C(=O)CN=C(c2ccccc2)c2cc(Cl)ccc21 [Diazepam, reference compound] | – | – | 1 | – | – | – | – | – | – | – | – | – | – | – | – | ED50 ([1]; ip): 0.17 mg/kg; ED50 ([3]; ip): 19 mg/kg
10 | O=C1Nc2ccc(Cl)cc2C(c2ccccc2Cl)=NC1O (centres unmarked) [Lorazepam, reference compound] | – | – | 1 | – | – | – | – | – | – | – | – | – | – | – | – | ED50 ([1]; ip): 0.02 mg/kg; ED50 ([3]; ip): 24 mg/kg
11 | CCC1(c2ccccc2)C(=O)[N-]C(=O)NC1=O.CCC1(c2ccccc2)C(=O)[N-]C(=O)NC1=O.CCC1(c2ccccc2)C(=O)[N-]C(=O)NC1=O.CCC1(c2ccccc2)C(=O)[N-]C(=O)NC1=O.O.O.[Cu+2].[Na+].[Na+] [Na2 [Cu(II)(Phenobarbital)4](H2 O)2] | 30 milligrams per kilogram of bod | 100 milligrams per kilogram of bod | 6 | – | 25 | 30 milligrams per kilogram of bod | 100 milligrams per kilogram of bod | 30 milligrams per kilogram of bod | 100 milligrams per kilogram of bod | 30 milligrams per kilogram of bod | 30 milligrams per kilogram of bod | – | – | – | – | ED50 for inhibition of seizures, Metrazol (Phase II) [1, 6]: 20 mg/kg
12 | CCC1(c2ccccc2)C(=O)NC(=O)NC1=O [Phenobarbital, reference compound] | – | – | 1 | – | – | – | – | – | – | – | – | – | – | – | – | ED50 ([1]; ip): 13 mg/kg; ED50 ([3]; ip): 22 mg/kg
13 | CCCC(CCC)C(=O)O [Valproic Acid, reference compound] | – | – | 0.25 | – | – | – | – | – | – | – | – | – | – | – | – | ED50 [1, 6]: 149 mg/kg; Protection against Metrazol-induced seizures (in words) ([1]; running text): more effective against Metrazol-induced seizures; ED50 [3, 6]: 272 mg/kg; Protection against Maximal Electroshock-induced seizures (in words) ([3]; running text): weakly effective against Maximal Electroshock-induced seizures

Source: patent publication US4758555A, “Method for treating convulsions and epilepsy with organic copper compounds” (priority 1986, dated 1988)
